According to patent US7750150B2, “Process for producing acid adduct salt of polyacidic base compound” (Kowa Co., Ltd., priority 2003, dated 2010):
Where two headings read alike, the source gives them in different places.

Legend:
[1] = Oral absorption; type: in vivo; conditions: statement in words, background art
[2] = Solubility of the acid addition salts; conditions: for water solubility: statement in words, background art
[3] = pH of aqueous solution; type: physicochemical
[4] = Thermal stability (HPLC purity after storage relative to before storage); type: physicochemical
Protocol: (Note) Thermal Stability:
The purity of each acid addition salt of the polyacidic basic compound stored at 80° C. for 10 days was determined by HPLC measurement relative to its purity before the storage with the proviso that the disulfate 1.5-water adduct and the dimaleate were stored at 60° C. for 7 days before their storage at 80° C. for 10 days.

[5] = Hygroscopicity (weight change on storage at 25° C. and 83% relative humidity); type: physicochemical; conditions: weight change after 4 days at 25° C. and 83% relative humidity
Protocol: (§1) A weight change of each acid addition salt was measured after storing it for 4 days under conditions of 25° C. and 83% relative humidity. • TG: Thermogravimetric Analysis • DSC: Differential Scanning Calorimetry

[6] = Powder X-ray diffraction (degree of crystallinity); type: physicochemical
Description: (§2) A powder X-ray diffraction pattern of 2-[4-[2-(benzimidazol-2-ylthio)ethyl]piperazin-1-yl]-N-[2,4-bis(methylthio)-6-methyl-3-pyridyl]acetamide monohydrochloride 0.9-water adduct is illustrated in FIG. 1, and the results of its TG (thermogravimetric analysis)-DSC (differential scanning calorimetry) measurements are shown in FIG. 2. Further, a powder X-ray diffraction pattern of 2-[4-[2-(benzimidazol-2-ylthio)ethyl]piperazin-1-yl]-N-[2,4-bis(methylthio)-6-methyl-3-pyridyl]acetamide tetrahydrochloride 2-water adduct is illustrated in FIG. 3, and the results of its TG-DSC measurements are shown in FIG. 4. A powder X-ray diffraction pattern of 2-[4-[2-(benzimidazol-2-ylthio)ethyl]piperazin-1-yl]-N-[2,4-bis(methylthio)-6-methyl-3-pyridyl]acetamide disulfate 1.5-water adduct is illustrated in FIG. 5, and the results of its TG-DSC measurements are shown in FIG. 6. A powder X-ray diffraction pattern of 2-[4-[2-(benzimidazol-2-ylthio)ethyl]piperazin-1-yl]-N-[2,4-bis(methylthio)-6-methyl-3-pyridyl]acetamide monosulfate 4-water adduct is illustrated in FIG. 7, and the results of its TG-DSC measurements are shown in FIG. 8. A powder X-ray diffraction pattern of 2-[4-[2-(benzimidazol-2-ylthio)ethyl]piperazin-1-yl]-N-[2,4-bis(methylthio)-6-methyl-3-pyridyl]acetamide monosulfate is illustrated in FIG. 9, and the results of its TG-DSC measurements are shown in FIG. 10. A powder X-ray diffraction pattern of 2-[4-[2-(benzimidazol-2-ylthio)ethyl]piperazin-1-yl]-N-[2,4-bis(methylthio)-6-methyl-3-pyridyl]acetamide dimaleate is illustrated in FIG. 11, and the results of its TG-DSC measurements are shown in FIG. 12.

[7] = physchem
[8] = TG (thermogravimetric analysis); type: physicochemical; conditions: weight change on heating
Description: as §2, §1

[9] = stored at 60° C. for 7 days before storage at 80° C. for 10 days
[10] = listed as 2-[4-[2-(benzimidazol-2-ylthio)ethyl]piperazin-1-yl]-N-[2,4-bis(methylthio)-6-me
[11] = listed as tetrahydrochloride 2-water adduct

| pH of 1% aq. Solution [3] | Hygroscopicity [5] | Powder X-ray [6] | TG [8] | Solubility [2] [mg/mL] | Thermal stability ([4]; stored at 80° C. for 10 days) [%] | Structure (SMILES) | other results |
| --- | --- | --- | --- | --- | --- | --- | --- |
| 2.62 | 2% | Low |  |  |  | CSc1cc(C)nc(SC)c1NC(=O)CN1CCN(CCSc2nc3ccccc3[nH]2)CC1.O=C(O)/C=C\C(=O)O.O=C(O)/C=C\C(=O)O [Dimaleate, 2-[4-[2-(benzimidazol-2-ylthio)ethyl]piperazin-1-yl]-N-[2,4-bis(methylthio)-6-methyl-3-pyridyl]acetamide dimaleate] | Thermal stability [4, 9]: 93.1%; Solubility [7]: 15 mg/mL |
|  | 15% | Low | No change until | 200 |  | CSc1cc(C)nc(SC)c1NC(=O)CN1CCN(CCSc2nc3ccccc3[nH]2)CC1.O=S(=O)(O)O [Monosulfate, 2-[4-[2-(benzimidazol-2-ylthio)ethyl]piperazin-1-yl]-N-[2,4-bis(methylthio)-6-methyl-3-pyridyl]acetamide monosulfate] | pH of aq. Solution ([3]; 0.5% aq. solution): 3.2 (0.5%) |

More lines, now with the values behind:

| Structure (SMILES) | pH of 1% aq. Solution [3] | Hygroscopicity [5] | Powder X-ray [6] | TG [8] | Solubility [2] [mg/mL] | Thermal stability ([4]; stored at 80° C. for 10 days) [%] | other results |
| --- | --- | --- | --- | --- | --- | --- | --- |
| Cc1cc(OCC(F)(F)F)c(NC(=O)CN2CCN(CCSc3nc4cc(F)c(F)cc4[nH]3)CC2)c(OCC(F)(F)F)n1.Cl |  |  |  |  |  |  | melting point: 186 to 187 °C |
| CSc1cc(C)nc(SC)c1NC(=O)CN1CCN(CCSc2nc3ccccc3[nH]2)CC1 [2-[4-[2-(benzimidazol-2-ylthio)ethyl]piperazin-1-yl]-N-[2,4-bis(methylthio)-6-methyl-3-pyridyl]acetamide] |  |  |  |  |  |  | oral absorption [1]: little well; water solubility [2]: too low |
| CSc1cc(C)nc(SC)c1NC(=O)CN1CCN(CCSc2nc3ccccc3[nH]2)CC1.CSc1cc(C)nc(SC)c1NC(=O)CN1CCN(CCSc2nc3ccccc3[nH]2)CC1.O.O.O.O=S(=O)(O)O.O=S(=O)(O)O.O=S(=O)(O)O.O=S(=O)(O)O [Disulfate 1.5-water adduct, 2-[4-[2-(benzimidazol-2-ylthio)ethyl]piperazin-1-yl]-N-[2,4-bis(methylthio)-6-methyl-3-pyridyl]acetamide disulfate 1.5-water adduct] | 2.00 | 10% | Low | No change until | >1000 |  | Thermal stability [4, 9]: 99.6% |
| CSc1cc(C)nc(SC)c1NC(=O)CN1CCN(CCSc2nc3ccccc3[nH]2)CC1.Cl.O [Monohydrochloride 0.9-water adduct, 2-[4-[2-(benzimidazol-2-ylthio)ethyl]piperazin-1-yl]-N-[2,4-bis(methylthio)-6-methyl-3-pyridyl]acetamide monohydrochloride 0.9-water adduct] |  | None |  | No change until | 0.5 | 99.2 | pH of aq. Solution ([3]; 0.05% aq. solution): 5.2 (0.05%); Thermal stability ([4]; stored at 80° C. for 10 days, listed as 2-[4-[2-(benzimidazol-2-ylthio)ethyl]piperazin-1-yl]-N-[2,4-bis(methylthio)-6-me): excellent in thermal stability; Hygroscopicity [5, 10]: no hygroscopicity; Powder X-ray [6, 10]: high degree of crystallinity; TG [8, 10]: without any substantial weight change |
| CSc1cc(C)nc(SC)c1NC(=O)CN1CCN(CCSc2nc3ccccc3[nH]2)CC1.O.O.O.O.O=S(=O)(O)O [Monosulfate 4-water adduct, 2-[4-[2-(benzimidazol-2-ylthio)ethyl]piperazin-1-yl]-N-[2,4-bis(methylthio)-6-methyl-3-pyridyl]acetamide monosulfate 4-water adduct] |  | None |  | Decreased 10% | 5 | 99.4 | pH of aq. Solution ([3]; 0.5% aq. solution): 3.2 (0.5%) |
| CSc1cc(C)nc(SC)c1NC(=O)CN1CCN(CCSc2nc3ccccc3[nH]2)CC1.Cl.Cl.Cl.Cl.O.O [Tetrahydrochloride 2-water adduct, 2-[4-[2-(benzimidazol-2-ylthio)ethyl]piperazin-1-yl]-N-[2,4-bis(methylthio)-6-methyl-3-pyridyl]acetamide tetrahydrochloride 2-water adduct] | 1.97 | 10% | Low | Gradual removal | >1000 | 98.5 | Hygroscopicity [5, 11]: high hygroscopicity; Powder X-ray [6, 11]: low degree of crystallinity; oral absorption [1]: substantially improved; water solubility [2]: substantially improved |
